Experimental data from paper PMC8913295, “Cryo-EM structure of hexameric yeast Lon protease (PIM1) highlights the importance of conserved structural elements” (The Journal of Biological Chemistry, 2022).

T1: PIM1 (yeast Lon protease) (Saccharomyces cerevisiae, UniProt P36775)
T1 construct: 109 kDa; hexamer; residues 529-1133 resolved
T1 sequence (P36775 182-1133): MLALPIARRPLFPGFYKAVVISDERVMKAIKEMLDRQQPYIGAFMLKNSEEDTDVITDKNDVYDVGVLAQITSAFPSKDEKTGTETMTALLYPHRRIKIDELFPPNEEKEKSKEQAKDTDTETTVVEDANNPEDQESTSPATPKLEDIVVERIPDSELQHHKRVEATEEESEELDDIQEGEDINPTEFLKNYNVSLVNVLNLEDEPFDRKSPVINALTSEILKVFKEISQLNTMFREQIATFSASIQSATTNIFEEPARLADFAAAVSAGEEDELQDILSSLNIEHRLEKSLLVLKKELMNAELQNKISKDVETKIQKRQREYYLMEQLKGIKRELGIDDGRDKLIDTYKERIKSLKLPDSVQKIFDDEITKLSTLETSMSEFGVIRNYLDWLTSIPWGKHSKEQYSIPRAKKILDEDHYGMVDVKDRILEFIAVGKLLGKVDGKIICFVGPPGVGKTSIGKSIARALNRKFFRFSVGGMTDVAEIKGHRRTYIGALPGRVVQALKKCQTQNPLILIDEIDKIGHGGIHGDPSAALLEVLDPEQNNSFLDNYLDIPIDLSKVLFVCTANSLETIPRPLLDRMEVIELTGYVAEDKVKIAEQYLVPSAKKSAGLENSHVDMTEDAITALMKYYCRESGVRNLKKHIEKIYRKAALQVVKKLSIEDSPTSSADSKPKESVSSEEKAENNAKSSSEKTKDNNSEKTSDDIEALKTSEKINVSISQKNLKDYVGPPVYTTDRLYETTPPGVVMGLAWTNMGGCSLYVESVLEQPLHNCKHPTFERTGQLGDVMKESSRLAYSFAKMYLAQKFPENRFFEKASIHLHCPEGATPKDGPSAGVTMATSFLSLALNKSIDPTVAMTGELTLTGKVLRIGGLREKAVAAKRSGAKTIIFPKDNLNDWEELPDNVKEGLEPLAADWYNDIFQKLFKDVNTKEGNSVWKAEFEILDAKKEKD


Key:
[1] = biological target: T1, PIM1 (yeast Lon protease); assay: cryo-EM structure ([…] Å); format: binding; conditions: two seam subunits (ADP1-2) without gamma-phosphate density; no ADP added, 1 mM ATPγS in sample
[2] = biological target: the molecule itself; assay: cryo-EM structure; WT PIM1 (3 mg/ml) after size-exclusion chromatography, incubated with 1 mM ATPγS on ice for 20 min, plunge-frozen; reconstruction at ~3.2 Å

Molecule	cryo-EM structure (3.2 Å) [1]	stoichiometry N [2]
Nc1ncnc2c1ncn2[C@@H]1O[C@H](COP(=O)(O)OP(=O)(O)O)[C@@H](O)[C@H]1O [ADP]	do not contain density for a γ-phosphate and are named ADP1 and ADP2	–
mature WT S. cerevisiae PIM1 lacking the mitochondrial targeting sequence (yeast Lon protease) (enzyme, UniProt P36775 182-1133, looked up, residues 529-1133 modelled in the structure; also called WT PIM1; source: E. coli BL21 (DE3) Codon Plus RIPL, purified (Ni-NTA, Superose 6 SEC)) MLALPIARRPLFPGFYKAVVISDERVMKAIKEMLDRQQPYIGAFMLKNSEEDTDVITDKNDVYDVGVLAQITSAFPSKDEKTGTETMTALLYPHRRIKIDELFPPNEEKEKSKEQAKDTDTETTVVEDANNPEDQESTSPATPKLEDIVVERIPDSELQHHKRVEATEEESEELDDIQEGEDINPTEFLKNYNVSLVNVLNLEDEPFDRKSPVINALTSEILKVFKEISQLNTMFREQIATFSASIQSATTNIFEEPARLADFAAAVSAGEEDELQDILSSLNIEHRLEKSLLVLKKELMNAELQNKISKDVETKIQKRQREYYLMEQLKGIKRELGIDDGRDKLIDTYKERIKSLKLPDSVQKIFDDEITKLSTLETSMSEFGVIRNYLDWLTSIPWGKHSKEQYSIPRAKKILDEDHYGMVDVKDRILEFIAVGKLLGKVDGKIICFVGPPGVGKTSIGKSIARALNRKFFRFSVGGMTDVAEIKGHRRTYIGALPGRVVQALKKCQTQNPLILIDEIDKIGHGGIHGDPSAALLEVLDPEQNNSFLDNYLDIPIDLSKVLFVCTANSLETIPRPLLDRMEVIELTGYVAEDKVKIAEQYLVPSAKKSAGLENSHVDMTEDAITALMKYYCRESGVRNLKKHIEKIYRKAALQVVKKLSIEDSPTSSADSKPKESVSSEEKAENNAKSSSEKTKDNNSEKTSDDIEALKTSEKINVSISQKNLKDYVGPPVYTTDRLYETTPPGVVMGLAWTNMGGCSLYVESVLEQPLHNCKHPTFERTGQLGDVMKESSRLAYSFAKMYLAQKFPENRFFEKASIHLHCPEGATPKDGPSAGVTMATSFLSLALNKSIDPTVAMTGELTLTGKVLRIGGLREKAVAAKRSGAKTIIFPKDNLNDWEELPDNVKEGLEPLAADWYNDIFQKLFKDVNTKEGNSVWKAEFEILDAKKEKD	–	6
